The text below walks through data of US20240358693A1, “METHODS OF TREATING PAIN” (Aisa Pharma, Inc., priority 2023, published 2024).

One series relates to participants with SSc-RP. Briefly: Summary of data: dose response / overall response, Phase 2a study Part A. Type of series: in vivo, human. Particulars: 20 mg dose group. The text has this:
Table S provides a summary of data:

For a further series, the target named is Nav 1.7 sodium channel (Homo sapiens, UniProt Q15858). The note with it: 20 mg dose of cilnidipine; cited from earlier work.
The test system of the next series is rat plasma proteins. Briefly: In vitro equilibrium dialysis (RED) protein binding, rat plasma. It is filed as in vitro ADME. How it is done:
(§1) Cilnidipine was tested by PsychoGenics using standard methodology in 96-well RED (Rapid Equilibrium Dialysis) plates from Thermo Fisher Scientific. Male Sprague-Dawley plasma and brain were obtained from BioIVT to provide the required protein matrix. Plasma was used undiluted, and brain homogenate was diluted 3 to 1 with PBS, pH 7.4. The protein matrix was spiked with the test compound dissolved in DMSO to achieve a 10 μM solution. Three chambers were used to allow for triplicate measures with a final DMSO concentration of <1% in each. The dialysate compartments of the 96-well dialysis chamber was loaded with PBS, pH 7.4 and the sample side was loaded with equal volume of the spiked protein matrix. The dialysis plate was then sealed and incubated at 37° C. for 4 h. After the incubation, samples were taken from each compartment. The buffer side was diluted with the appropriate matrix (plasma or brain homogenate) and the protein matrix side diluted with phosphate buffer. Resultant samples were then crashed in acetonitrile, centrifuged and the supernatant mixed with an aqueous solution providing samples for UPLC-MS/MS analysis. […] This control sample served as the basis for the determination of recovery. […] Samples were analyzed by UPLC-MS/MS using […] (MRM). The UPLC conditions consisted of a binary LC pump with autosampler, an InertSustain column (C18 column, 2.1×50 mm), utilizing gradient elution. The peak areas of the test compound in the buffer and test samples were used to calculate percent binding and recovery according to the following formulas: […]
(§2) The recovery determination serves as an indicator of reliability of the calculated protein binding value.
(§3) The characterization of protein binding is defined using the following ranges:
(§4) • Low 0 to 50% • Moderate 50 to 90% • High 90 to 99% • Very High>99%
On the technique in general: Equilibrium dialysis compares concentrations on both sides of a semipermeable membrane.

Test in series [1]: as above
Type of series: in vitro ADME. The note with it: male, Sprague-Dawley, pH 7.4. As to the method:
as §1, §2, §3, §4

In another series the test system is plasma protein. The note with it: oral; cited from earlier work.
The conditions of series [2]: oral dosing; cited from earlier work.
Series [3] relates to rat brain homogenate proteins. Briefly: In vitro equilibrium dialysis (RED) protein binding, rat brain homogenate. Type of series: in vitro ADME. As to the method: as §1, §2, §3, §4
Test in series [4]: as above
It is filed as in vitro ADME. Particulars: male, Sprague-Dawley, rat, pH 7.4. As to the method: as §1, §2, §3, §4

Setting [5] is: male, Sprague-Dawley, plasma, 4 h, 10 μM, pH 7.4.

Molecules are shown by their SMILES.

Nav 1.7 sodium channel, sequence (Q15858 whole entry): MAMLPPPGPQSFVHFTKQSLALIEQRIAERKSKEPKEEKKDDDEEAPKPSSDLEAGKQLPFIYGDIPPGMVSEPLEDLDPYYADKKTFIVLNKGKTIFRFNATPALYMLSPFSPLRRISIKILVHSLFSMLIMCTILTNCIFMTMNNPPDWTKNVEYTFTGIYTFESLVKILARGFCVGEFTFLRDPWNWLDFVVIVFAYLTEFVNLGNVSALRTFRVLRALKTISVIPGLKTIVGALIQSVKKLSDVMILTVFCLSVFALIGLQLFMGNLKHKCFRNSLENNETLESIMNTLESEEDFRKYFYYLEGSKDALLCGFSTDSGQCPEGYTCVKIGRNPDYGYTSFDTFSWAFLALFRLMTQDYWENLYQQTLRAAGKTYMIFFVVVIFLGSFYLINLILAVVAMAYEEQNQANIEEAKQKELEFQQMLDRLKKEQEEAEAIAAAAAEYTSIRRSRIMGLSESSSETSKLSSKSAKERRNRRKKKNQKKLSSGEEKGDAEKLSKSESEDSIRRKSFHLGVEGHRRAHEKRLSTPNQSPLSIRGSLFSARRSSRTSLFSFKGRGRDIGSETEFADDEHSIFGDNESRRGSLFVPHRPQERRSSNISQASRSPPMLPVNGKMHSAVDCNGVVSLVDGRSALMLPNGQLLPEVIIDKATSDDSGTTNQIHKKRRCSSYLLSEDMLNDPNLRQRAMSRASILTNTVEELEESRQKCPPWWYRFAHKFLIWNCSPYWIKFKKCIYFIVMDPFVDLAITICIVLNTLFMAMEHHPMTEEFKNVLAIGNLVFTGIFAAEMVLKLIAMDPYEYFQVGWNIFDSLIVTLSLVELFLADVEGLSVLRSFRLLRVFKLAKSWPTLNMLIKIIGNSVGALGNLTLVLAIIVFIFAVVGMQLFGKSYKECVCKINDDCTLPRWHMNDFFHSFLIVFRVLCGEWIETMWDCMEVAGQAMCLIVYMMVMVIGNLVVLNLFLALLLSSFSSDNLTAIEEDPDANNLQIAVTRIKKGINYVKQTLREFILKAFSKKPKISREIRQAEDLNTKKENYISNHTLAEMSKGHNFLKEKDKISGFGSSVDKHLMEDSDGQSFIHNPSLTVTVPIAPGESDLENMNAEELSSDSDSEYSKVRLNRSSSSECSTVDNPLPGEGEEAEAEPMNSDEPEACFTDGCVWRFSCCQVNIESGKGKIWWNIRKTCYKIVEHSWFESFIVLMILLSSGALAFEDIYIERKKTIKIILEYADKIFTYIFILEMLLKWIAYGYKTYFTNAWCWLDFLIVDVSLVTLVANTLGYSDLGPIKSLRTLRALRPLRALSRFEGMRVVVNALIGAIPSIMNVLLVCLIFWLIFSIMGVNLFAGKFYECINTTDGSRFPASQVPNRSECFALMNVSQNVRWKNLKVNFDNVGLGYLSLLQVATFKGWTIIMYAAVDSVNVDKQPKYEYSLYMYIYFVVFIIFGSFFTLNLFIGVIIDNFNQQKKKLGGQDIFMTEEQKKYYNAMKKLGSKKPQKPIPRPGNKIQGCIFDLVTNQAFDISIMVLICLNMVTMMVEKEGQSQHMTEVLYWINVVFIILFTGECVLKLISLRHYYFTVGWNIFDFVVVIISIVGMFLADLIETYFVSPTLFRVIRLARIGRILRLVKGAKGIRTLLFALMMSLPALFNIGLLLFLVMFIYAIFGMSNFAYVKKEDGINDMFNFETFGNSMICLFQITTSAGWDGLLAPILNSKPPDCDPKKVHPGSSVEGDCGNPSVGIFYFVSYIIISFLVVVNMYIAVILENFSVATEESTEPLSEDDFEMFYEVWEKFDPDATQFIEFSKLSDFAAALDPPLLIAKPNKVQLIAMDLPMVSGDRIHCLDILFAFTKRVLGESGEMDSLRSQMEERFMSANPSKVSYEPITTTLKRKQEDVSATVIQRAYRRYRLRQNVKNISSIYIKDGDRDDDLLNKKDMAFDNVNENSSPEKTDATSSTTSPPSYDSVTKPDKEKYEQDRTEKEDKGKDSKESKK

On to `COCCOC(=O)C1=C(C)NC(C)=C(C(=O)OC/C=C/c2ccccc2)C1c1cccc([N+](=O)[O-])c1` (centres unmarked) [Cilnidipine, cilnidipine], for which the “Efficacy seen: overall response” value with participants with SSc-RP is recorded as “shows best overall”. Moreover, on Nav 1.7 sodium channel, the “inhibition of Nav 1.7 compared to an 1800 mg dose of gabapentin” value was > 6 fold. Further, the binding to plasma with rat plasma proteins (male, Sprague-Dawley, 4 h, 10 μM, pH 7.4) came out at 100%. Further, the “Protein Binding (%)” value in the series on rat plasma proteins (setting [5]) was 100.0 ± 0.00%. Besides, the “Unbound (%)” value in the series on rat plasma proteins (setting [5]) is reported as 0.0 ± 0.00%; in series [3] (male, Sprague-Dawley, rat, brain homogenate, 4 h, 10 μM, pH 7.4), 0.8 ± 0.03%. Also, in the series on rat plasma proteins (plasma), the stability in plasma result is recorded as “stable”. The results for the recovery at 4 h, 10 μM in series [1] and in series [4] were 92.9 ± 4.69% and 93.7 ± 3.25%, respectively. In addition, the “protein bound (protein binding in plasma) when given orally” value with plasma protein was 98%. Also, the “time to achieve maximal plasma concentrations (Tmax)” value in series [2] is ≤ 2 h. For the same compound, the stability in brain entry in series [3] was “stable”. Also, the binding to brain in series [3] (male, Sprague-Dawley, rat, 4 h, 10 μM, pH 7.4) is given as 99.2%. Moreover, the fraction unbound at 4 h, 10 μM in series [4] (brain homogenate) is 0.008.

The fraction unbound is free concentration divided by total concentration. A low value points to little free substance.
